# In patent US6461997B1, “Triazole sulfones having herbicidal activity” (Monsanto Technology LLC, priority 1999, dated 2002):
# Test system: ECHCG (barnyardgrass)
# Assay: Pre-emergence herbicidal activity, warm season
# Type: in vivo, Echinochloa crus-galli
# Details: GR80 = lowest tested rate (300, 100, 30, 10 g/ha) with 80% or greater inhibition; approx. 14 days after treating; 30/21° C.
# Summary of the method: (§1)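 GR80 values derive from percent inhibition relative to untreated plants, read roughly 14 days after sowing and pre-emergence soil-surface treatment (compound in 50:50 acetone/water; rates typically 10, 30, 100, 300 g/ha). Warm-season weeds grew at 30/21° C day/night, cool-season ones at 18/13° C; an asterisk marks activity without reaching 80% at the highest rate.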
row,SMILES,Pre-emergence activity (GR80) ECHCG
1,"C=CCC(F)(F)S(=O)(=O)c1ncn(C(=O)N(CC)CC)n1 [Example 17, 1-(N,N-diethylcarbamoyl)-3-[(1,1-difluoro-3-butenyl)sulfonyl]-1,2,4-triazole]",100 g/ha
2,C=C(CC(F)(F)S(=O)(=O)c1ncn(C(=O)N(CC)CC)n1)C[Si](C)(C)C [Example 20],300 g/ha

# Test system: STEME (common chickweed)
# Assay: Pre-emergence herbicidal activity, cool season
# Type: in vivo, Stellaria media
# Details: lowest tested rate with 80% or greater inhibition; rates 300, 100, 30, 10 g/ha; about 14 days
# Summary of the method: as §1
row,SMILES,"Pre-emergence activity GR80, STEME"
1,"C=CCC(F)(F)S(=O)(=O)c1ncn(C(=O)N(CC)CC)n1 [Example 17, 1-(N,N-diethylcarbamoyl)-3-[(1,1-difluoro-3-butenyl)sulfonyl]-1,2,4-triazole]",100 g/ha
2,C=C(CC(F)(F)S(=O)(=O)c1ncn(C(=O)N(CC)CC)n1)C[Si](C)(C)C [Example 20],[empty]

# Test system: CHEAL (common lambsquarters)
# Assay: Pre-emergence herbicidal activity, warm season
# Type: in vivo, Chenopodium album
# Details: GR80 = lowest tested rate (300, 100, 30, 10 g/ha) with 80% or greater inhibition; approx. 14 days after treating; 30/21° C.
# Summary of the method: as §1
row,SMILES,Pre-emergence activity (GR80) CHEAL
1,"C=CCC(F)(F)S(=O)(=O)c1ncn(C(=O)N(CC)CC)n1 [Example 17, 1-(N,N-diethylcarbamoyl)-3-[(1,1-difluoro-3-butenyl)sulfonyl]-1,2,4-triazole]",100 g/ha
2,C=C(CC(F)(F)S(=O)(=O)c1ncn(C(=O)N(CC)CC)n1)C[Si](C)(C)C [Example 20],300 g/ha

# Test system: AVEFA (wild oat)
# Assay: Post-emergence herbicidal activity, cool season
# Type: in vivo, Avena fatua
# Details: abraded plants sprayed at 300, 100, 30 and 10 g/ha; about 14 days after treatment
# Summary of the method: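 Greenhouse test on sand-abraded seedlings sprayed 9 to 14 days after planting at 300, 100, 30 and 10 g/ha; GR80 from percent inhibition versus controls at approximately 14 days.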
row,SMILES,"Post-emergence activity GR80, AVEFA"
1,"C=CCC(F)(F)S(=O)(=O)c1ncn(C(=O)N(CC)CC)n1 [Example 17, 1-(N,N-diethylcarbamoyl)-3-[(1,1-difluoro-3-butenyl)sulfonyl]-1,2,4-triazole]",[empty]
2,C=C(CC(F)(F)S(=O)(=O)c1ncn(C(=O)N(CC)CC)n1)C[Si](C)(C)C [Example 20],[empty]

# Test system: rice (ORYSA)
# Assay: Selectivity test, PPI, warm season crop
# Type: in vivo, Oryza sativa
# Details: Oryza sativa; PPI application, 10 g/ha; read-out: Percent inhibition ORYSA
# Procedure: (§2) A pre-prepared topsoil mixture (described above) was placed in a pot and compacted to a depth of 1.0 to 1.25 cm from the top of the pot. Seeds of each of several monocotyledonous and dicotyledonous annual plant species were placed on top of the soil. A sufficient quantity of soil to cover the seeds and level fill the pot was weighed into an open container. A known amount of the test compound was dissolved or suspended in an organic solvent and applied by spraying to this cover soil. The cover soil was thoroughly mixed to distribute the test compound throughout the cover soil, and was then applied as a cover layer over the seeds. Untreated soil was used as a cover layer for control pots. After treatment the plants were placed in a greenhouse where they received 0.64 cm of overhead irrigation. All subsequent watering consisted of a light overhead mist and/or subirrigation as needed for germination and growth. Tables 9 and 10 below relate to warm season plant species which were placed after pre-emergence treatment in a greenhouse with a 30/21° C. day/night temperature regime. Tables 11 and 12 below relates to cool season plant species placed after pre-emergence treatment in a greenhouse or growth chamber with an 18/13° C. day/night temperature regime. Only the compounds of Examples 1, 6, 8, 11, 13 and 15-20 were included in PPI tests.
# (§3) Approximately 14 days after planting and treating, the plants were observed and herbicidal efficacy recorded as percent inhibition by comparison with untreated plants.
# Additional pre-emergence and PPI tests were conducted by the procedures described above, on warm and cool season weed species in the presence of crop species, to assess herbicidal selectivity. Crop species included in warm season tests were corn (Zea mays, ZEAMX), rice (Oryza sativa, ORYSA) and soybean (Glycine max, GLYMX). Crop species included in cool season tests were wheat (Triticum aestivum, TRZAW), barley (Hordeunm vulgare, HORVX) and oilseed rape (Brassica napus, BRSNS).
# Tables 15 and 16 relate to pre-emergence and PPI tests respectively on warm season species. Table 17 relates to pre-emergence tests on cool season species.
row,SMILES,inhibition at 10 g/ha
1,"C=CCC(F)(F)S(=O)(=O)c1ncn(C(=O)N(CC)CC)n1 [Example 17, 1-(N,N-diethylcarbamoyl)-3-[(1,1-difluoro-3-butenyl)sulfonyl]-1,2,4-triazole]",0%

# Same assay, conditions: Oryza sativa; PPI application, 30 g/ha; read-out: Percent inhibition ORYSA
row,SMILES,inhibition at 30 g/ha
1,"C=CCC(F)(F)S(=O)(=O)c1ncn(C(=O)N(CC)CC)n1 [Example 17, 1-(N,N-diethylcarbamoyl)-3-[(1,1-difluoro-3-butenyl)sulfonyl]-1,2,4-triazole]",0%

# Same assay, conditions: Oryza sativa; PPI application, 100 g/ha; read-out: Percent inhibition ORYSA
row,SMILES,inhibition at 100 g/ha
1,"C=CCC(F)(F)S(=O)(=O)c1ncn(C(=O)N(CC)CC)n1 [Example 17, 1-(N,N-diethylcarbamoyl)-3-[(1,1-difluoro-3-butenyl)sulfonyl]-1,2,4-triazole]",0%

# Same assay, conditions: Oryza sativa; PPI application, 300 g/ha; read-out: Percent inhibition ORYSA
row,SMILES,inhibition at 300 g/ha
1,"C=CCC(F)(F)S(=O)(=O)c1ncn(C(=O)N(CC)CC)n1 [Example 17, 1-(N,N-diethylcarbamoyl)-3-[(1,1-difluoro-3-butenyl)sulfonyl]-1,2,4-triazole]",30%

# Same assay, conditions: Oryza sativa; PPI application, 900 g/ha; read-out: Percent inhibition ORYSA
row,SMILES,inhibition at 900 g/ha
1,"C=CCC(F)(F)S(=O)(=O)c1ncn(C(=O)N(CC)CC)n1 [Example 17, 1-(N,N-diethylcarbamoyl)-3-[(1,1-difluoro-3-butenyl)sulfonyl]-1,2,4-triazole]",60%

# Same assay, conditions: PPI application, 10 g/ha
row,SMILES,Percent inhibition ORYSA
1,C=C(CC(F)(F)S(=O)(=O)c1ncn(C(=O)N(CC)CC)n1)C[Si](C)(C)C [Example 20],0%

# Same assay, conditions: PPI application, 30 g/ha
row,SMILES,Percent inhibition ORYSA
1,C=C(CC(F)(F)S(=O)(=O)c1ncn(C(=O)N(CC)CC)n1)C[Si](C)(C)C [Example 20],0%

# Same assay, conditions: PPI application, 100 g/ha
row,SMILES,Percent inhibition ORYSA
1,C=C(CC(F)(F)S(=O)(=O)c1ncn(C(=O)N(CC)CC)n1)C[Si](C)(C)C [Example 20],0%

# Same assay, conditions: PPI application, 300 g/ha
row,SMILES,Percent inhibition ORYSA
1,C=C(CC(F)(F)S(=O)(=O)c1ncn(C(=O)N(CC)CC)n1)C[Si](C)(C)C [Example 20],10%

# Same assay, conditions: PPI application, 900 g/ha
row,SMILES,Percent inhibition ORYSA
1,C=C(CC(F)(F)S(=O)(=O)c1ncn(C(=O)N(CC)CC)n1)C[Si](C)(C)C [Example 20],40%

# Test system: SINAR (wild mustard)
# Assay: Pre-emergence herbicidal activity, cool season
# Type: in vivo, Sinapis arvensis
# Details: lowest tested rate with 80% or greater inhibition; rates 300, 100, 30, 10 g/ha; about 14 days
# Summary of the method: as §1
row,SMILES,"Pre-emergence activity GR80, SINAR"
1,"C=CCC(F)(F)S(=O)(=O)c1ncn(C(=O)N(CC)CC)n1 [Example 17, 1-(N,N-diethylcarbamoyl)-3-[(1,1-difluoro-3-butenyl)sulfonyl]-1,2,4-triazole]",100 g/ha
2,C=C(CC(F)(F)S(=O)(=O)c1ncn(C(=O)N(CC)CC)n1)C[Si](C)(C)C [Example 20],[empty]

# Test system: DATST (jimsonweed)
# Assay: Pre-plant incorporated (PPI) herbicidal activity, warm season
# Type: in vivo, Datura stramonium
# Details: Datura stramonium; PPI application, 10 g/ha; read-out: Percent inhibition DATST
# Procedure: In another set of tests, the pre-plant incorporated (PPI) activity of compounds of this invention was evaluated on the same species as for the pre-emergence tests described above. In the PPI tests the following procedure, designed to simulate PPI application, was used.
# as §2, §3
row,SMILES,inhibition at 10 g/ha
1,"C=CCC(F)(F)S(=O)(=O)c1ncn(C(=O)N(CC)CC)n1 [Example 17, 1-(N,N-diethylcarbamoyl)-3-[(1,1-difluoro-3-butenyl)sulfonyl]-1,2,4-triazole]",0%

# Same assay, conditions: Datura stramonium; PPI application, 30 g/ha; read-out: Percent inhibition DATST
row,SMILES,inhibition at 30 g/ha
1,"C=CCC(F)(F)S(=O)(=O)c1ncn(C(=O)N(CC)CC)n1 [Example 17, 1-(N,N-diethylcarbamoyl)-3-[(1,1-difluoro-3-butenyl)sulfonyl]-1,2,4-triazole]",0%

# Same assay, conditions: Datura stramonium; PPI application, 100 g/ha; read-out: Percent inhibition DATST
row,SMILES,inhibition at 100 g/ha
1,"C=CCC(F)(F)S(=O)(=O)c1ncn(C(=O)N(CC)CC)n1 [Example 17, 1-(N,N-diethylcarbamoyl)-3-[(1,1-difluoro-3-butenyl)sulfonyl]-1,2,4-triazole]",30%

# Same assay, conditions: Datura stramonium; PPI application, 300 g/ha; read-out: Percent inhibition DATST
row,SMILES,inhibition at 300 g/ha
1,"C=CCC(F)(F)S(=O)(=O)c1ncn(C(=O)N(CC)CC)n1 [Example 17, 1-(N,N-diethylcarbamoyl)-3-[(1,1-difluoro-3-butenyl)sulfonyl]-1,2,4-triazole]",60%

# Same assay, conditions: Datura stramonium; PPI application, 900 g/ha; read-out: Percent inhibition DATST
row,SMILES,inhibition at 900 g/ha
1,"C=CCC(F)(F)S(=O)(=O)c1ncn(C(=O)N(CC)CC)n1 [Example 17, 1-(N,N-diethylcarbamoyl)-3-[(1,1-difluoro-3-butenyl)sulfonyl]-1,2,4-triazole]",99%

# Same assay, conditions: PPI application, 10 g/ha
row,SMILES,Percent inhibition DATST
1,C=C(CC(F)(F)S(=O)(=O)c1ncn(C(=O)N(CC)CC)n1)C[Si](C)(C)C [Example 20],0%

# Same assay, conditions: PPI application, 30 g/ha
row,SMILES,Percent inhibition DATST
1,C=C(CC(F)(F)S(=O)(=O)c1ncn(C(=O)N(CC)CC)n1)C[Si](C)(C)C [Example 20],0%

# Same assay, conditions: PPI application, 100 g/ha
row,SMILES,Percent inhibition DATST
1,C=C(CC(F)(F)S(=O)(=O)c1ncn(C(=O)N(CC)CC)n1)C[Si](C)(C)C [Example 20],0%

# Same assay, conditions: PPI application, 300 g/ha
row,SMILES,Percent inhibition DATST
1,C=C(CC(F)(F)S(=O)(=O)c1ncn(C(=O)N(CC)CC)n1)C[Si](C)(C)C [Example 20],20%

# Same assay, conditions: PPI application, 900 g/ha
row,SMILES,Percent inhibition DATST
1,C=C(CC(F)(F)S(=O)(=O)c1ncn(C(=O)N(CC)CC)n1)C[Si](C)(C)C [Example 20],60%

# Same assay, conditions: pre-plant incorporated; GR80 = lowest tested rate with 80% or greater inhibition; approx. 14 days after treating; 30/21° C.
row,SMILES,PPI activity (GR80) DATST
1,"C=CCC(F)(F)S(=O)(=O)c1ncn(C(=O)N(CC)CC)n1 [Example 17, 1-(N,N-diethylcarbamoyl)-3-[(1,1-difluoro-3-butenyl)sulfonyl]-1,2,4-triazole]",300 g/ha
2,C=C(CC(F)(F)S(=O)(=O)c1ncn(C(=O)N(CC)CC)n1)C[Si](C)(C)C [Example 20],300 g/ha
